Measured values published in US8513238B2 (Hoffmann-La Roche Inc., priority 2010, dated 2013).
Counter-ions that a name gives are not always drawn.

Target: T1, human V1a receptor (Homo sapiens, UniProt P37288)
T1 construct: expressed in transfected cells; host or cells: HEK293 cells, transiently transfected; membranes prepared
Assay: human V1a receptor binding (3H-Vasopressin SPA, HEK293 membranes)
Details: membranes of HEK293 cells transiently transfected with human V1a receptor, Ki by Cheng-Prussoff, read-out: pKi (hV1a) (converted)
Method: The human V1a receptor was cloned by RT-PCR from total human liver RNA. The coding sequence was subcloned in an expression vector after sequencing to confirm the identity of the amplified sequence. […] Cell membranes were prepared from HEK293 cells transiently transfected with the expression vector and grown in 20 liter fermenters with the following protocol.
50 g of cells are resuspended in 30 ml freshly prepared ice cold Lysis buffer (50 mM HEPES, 1 mM EDTA, 10 mM magnesium dichloride adjusted to pH=7.4+complete cocktail of protease inhibitor (Roche Diagnostics)). Homogenized with Polytron for 1 min and sonicated on ice for 2×2 minutes at 80% intensity (Vibracell sonicator). The preparation is centrifuged 20 min at 500 g at 4° C., the pellet is discarded and the supernatant centrifuged 1 hour at 43,000 g at 4° C. (19,000 rpm). The pellet is resuspended in 12.5 ml Lysis buffer+12.5 ml sucrose 20% and homogenized using a Polytron for 1-2 min. The protein concentration is determined by the Bradford method and aliquots are stored at −80° C. until use. For binding studies 60 mg Yttrium silicate SPA beads (Amersham®) are mixed with an aliquot of membrane in binding buffer (50 mM Tris, 120 mM sodium chloride, 5 mM potassium chloride, 2 mM calcium dichloride, 10 mM magnesium dichloride) for 15 minutes with mixing. 50 μl of bead/membrane mixture is then added to each well of a 96 well plate, followed by 50 μl of 4 nM 3H-Vasopressin (American Radiolabeled Chemicals). For total binding measurement 100 μl of binding buffer are added to the respective wells, for non-specific binding 100 μl of 8.4 mM cold vasopressin and for compound testing 100 μl of a serial dilution of each compound in 2% dimethyl sulfoxide. The plate is incubated 1 h at room temperature, centrifuged 1 min at 1000 g and counted on a Packard Top-Count. Non-specific binding counts are subtracted from each well and data is normalized to the maximum specific binding set at 100%. To calculate an IC50 the curve is fitted using a non-linear regression model (XLfit) and the Ki is calculated using the Cheng-Prussoff equation.

T1 sequence (P37288 whole entry): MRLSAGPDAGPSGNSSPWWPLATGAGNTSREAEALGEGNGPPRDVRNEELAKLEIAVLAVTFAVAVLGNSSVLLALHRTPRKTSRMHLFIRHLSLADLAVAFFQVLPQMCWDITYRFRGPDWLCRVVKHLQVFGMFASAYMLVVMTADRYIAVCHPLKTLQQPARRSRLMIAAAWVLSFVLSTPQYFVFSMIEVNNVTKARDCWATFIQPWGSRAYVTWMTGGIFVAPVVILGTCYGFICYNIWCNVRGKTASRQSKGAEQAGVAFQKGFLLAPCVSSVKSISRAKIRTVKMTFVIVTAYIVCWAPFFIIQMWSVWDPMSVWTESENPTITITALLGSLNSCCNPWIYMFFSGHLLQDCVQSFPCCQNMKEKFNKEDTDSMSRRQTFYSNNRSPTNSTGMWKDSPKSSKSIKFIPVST

| Structure (SMILES) | Ki |
| --- | --- |
| Clc1ccc2c(c1)CNCc1nnc([C@H]3CC[C@H](c4noc5c4CCCC5)CC3)n1-2 [Example 55, trans-8-Chloro-1-[4-(4,5,6,7-tetrahydro-benzo[d]isoxazol-3-yl)-cyclohexyl]-5,6-dihydro-4H-2,3,5,10b-tetraaza-benzo[e]azulene] | 5.89 nM |
| CN1Cc2cc(Cl)ccc2-n2c(nnc2[C@H]2CC[C@H](c3noc4c3CCCC4)CC2)C1 [Example 56, trans-8-Chloro-5-methyl-1-[4-(4,5,6,7-tetrahydro-benzo[d]isoxazol-3-yl)-cyclohexyl]-5,6-dihydro-4H-2,3,5,10b-tetraaza-benzo[e]azulene] | 1.58 nM |
| CC(C)(C)OC(=O)N1Cc2cc(Cl)ccc2-n2c(nnc2[C@H]2CC[C@@H](c3noc4c3CCCC4)CC2)C1 [Example 57, cis-8-Chloro-1-[4-(4,5,6,7-tetrahydro-benzo[d]isoxazol-3-yl)-cyclohexyl]-4H,6H-2,3,5,10b-tetraaza-benzo[e]azulene-5-carboxylic acid tert-butyl ester] | 46.8 nM |
| Clc1ccc2c(c1)CNCc1nnc([C@H]3CC[C@@H](c4noc5c4CCCC5)CC3)n1-2 [Example 58, cis-8-Chloro-1-[4-(4,5,6,7-tetrahydro-benzo[d]isoxazol-3-yl)-cyclohexyl]-5,6-dihydro-4H-2,3,5,10b-tetraaza-benzo[e]azulene] | 191 nM |
| CN1Cc2cc(Cl)ccc2-n2c(nnc2[C@H]2CC[C@@H](c3noc4c3CCCC4)CC2)C1 [Example 59, cis-8-Chloro-5-methyl-1-[4-(4,5,6,7-tetrahydro-benzo[d]isoxazol-3-yl)-cyclohexyl]-5,6-dihydro-4H-2,3,5,10b-tetraaza-benzo[e]azulene] | 8.13 nM |
| CC(C)(C)OC(=O)N1Cc2cc(Cl)ccc2-n2c(nnc2[C@H]2CC[C@H](c3onc4c3CCCC4)CC2)C1 [Example 60, trans-8-Chloro-1-[4-(4,5,6,7-tetrahydro-benzo[c]isoxazol-3-yl)-cyclohexyl]-4H,6H-2,3,5,10b-tetraaza-benzo[e]azulene-5-carboxylic acid tert-butyl ester] | 15.5 nM |
| Clc1ccc2c(c1)CNCc1nnc([C@H]3CC[C@H](c4onc5c4CCCC5)CC3)n1-2 [Example 61, trans-8-Chloro-1-[4-(4,5,6,7-tetrahydro-benzo[c]isoxazol-3-yl)-cyclohexyl]-5,6-dihydro-4H-2,3,5,10b-tetraaza-benzo[e]azulene] | 30.2 nM |
| CN1Cc2cc(Cl)ccc2-n2c(nnc2[C@H]2CC[C@H](c3onc4c3CCCC4)CC2)C1 [Example 62, trans-8-Chloro-5-methyl-1-[4-(4,5,6,7-tetrahydro-benzo[c]isoxazol-3-yl)-cyclohexyl]-5,6-dihydro-4H-2,3,5,10b-tetraaza-benzo[e]azulene] | 6.31 nM |
| Cc1nnc([C@H]2CC[C@H](c3nnc4n3-c3ccc(Cl)cc3CN(C(=O)OC(C)(C)C)C4)CC2)o1 [Example 63, trans-8-Chloro-1-[4-(5-methyl-[1,3,4]oxadiazol-2-yl)-cyclohexyl]-4H,6H-2,3,5,10b-tetraaza-benzo[e]azulene-5-carboxylic acid tert-butyl ester] | 1.58 nM |
| Cc1nnc([C@H]2CC[C@H](c3nnc4n3-c3ccc(Cl)cc3CNC4)CC2)o1 [Example 64, trans-8-Chloro-1-[4-(5-methyl-[1,3,4]oxadiazol-2-yl)-cyclohexyl]-5,6-dihydro-4H-2,3,5,10b-tetraaza-benzo[e]azulene] | 204 nM |
| Cc1nnc([C@H]2CC[C@H](c3nnc4n3-c3ccc(Cl)cc3CN(C)C4)CC2)o1 [Example 65, trans-8-Chloro-5-methyl-1-[4-(5-methyl-[1,3,4]oxadiazol-2-yl)-cyclohexyl]-5,6-dihydro-4H-2,3,5,10b-tetraaza-benzo[e]azulene] | 15.8 nM |
| Cc1noc([C@H]2CC[C@H](c3nnc4n3-c3ccc(Cl)cc3CN(C(=O)OC(C)(C)C)C4)CC2)n1 [Example 66, trans-8-Chloro-1-[4-(3-methyl-[1,2,4]oxadiazol-5-yl)-cyclohexyl]-4H,6H-2,3,5,10b-tetraaza-benzo[e]azulene-5-carboxylic acid tert-butyl ester] | 2.88 nM |
| Cc1noc([C@H]2CC[C@H](c3nnc4n3-c3ccc(Cl)cc3CNC4)CC2)n1 [Example 67, trans-8-Chloro-1-[4-(3-methyl-[1,2,4]oxadiazol-5-yl)-cyclohexyl]-5,6-dihydro-4H-2,3,5,10b-tetraaza-benzo[e]azulene hydrochloride] | 67.6 nM |
| Cc1noc([C@H]2CC[C@H](c3nnc4n3-c3ccc(Cl)cc3CN(C)C4)CC2)n1 [Example 68, trans-8-Chloro-5-methyl-1-[4-(3-methyl-[1,2,4]oxadiazol-5-yl)-cyclohexyl]-5,6-dihydro-4H-2,3,5,10b-tetraaza-benzo[e]azulene] | 6.61 nM |
| Cc1nsc([C@H]2CC[C@H](c3nnc4n3-c3ccc(Cl)cc3CN(C(=O)OC(C)(C)C)C4)CC2)n1 [Example 69, trans-8-Chloro-1-[4-(3-methyl-[1,2,4]thiadiazol-5-yl)-cyclohexyl]-4H,6H-2,3,5,10b-tetraaza-benzo[e]azulene-5-carboxylic acid tert-butyl ester] | 1.51 nM |
| Cc1nsc([C@H]2CC[C@H](c3nnc4n3-c3ccc(Cl)cc3CNC4)CC2)n1 [Example 70, trans-8-Chloro-1-[4-(3-methyl-[1,2,4]thiadiazol-5-yl)-cyclohexyl]-5,6-dihydro-4H-2,3,5,10b-tetraaza-benzo[e]azulene] | 129 nM |
| Cc1nsc([C@H]2CC[C@H](c3nnc4n3-c3ccc(Cl)cc3CN(C)C4)CC2)n1 [Example 71, trans-8-Chloro-5-methyl-1-[4-(3-methyl-[1,2,4]thiadiazol-5-yl)-cyclohexyl]-5,6-dihydro-4H-2,3,5,10b-tetraaza-benzo[e]azulene] | 15.1 nM |
| Cc1nc([C@H]2CC[C@H](c3nnc4n3-c3ccc(Cl)cc3CN(C(=O)OC(C)(C)C)C4)CC2)no1 [Example 72, trans-8-Chloro-1-[4-(5-methyl-[1,2,4]oxadiazol-3-yl)-cyclohexyl]-4H,6H-2,3,5,10b-tetraaza-benzo[e]azulene-5-carboxylic acid tert-butyl ester] | 0.708 nM |
| Cc1nc([C@H]2CC[C@H](c3nnc4n3-c3ccc(Cl)cc3CNC4)CC2)no1 [Example 73, trans-8-Chloro-1-[4-(5-methyl-[1,2,4]oxadiazol-3-yl)-cyclohexyl]-5,6-dihydro-4H-2,3,5,10b-tetraaza-benzo[e]azulene hydrochloride] | 15.8 nM |
| Cc1nc([C@H]2CC[C@H](c3nnc4n3-c3ccc(Cl)cc3CN(C)C4)CC2)no1 [Example 74, trans-8-Chloro-5-methyl-1-[4-(5-methyl-[1,2,4]oxadiazol-3-yl)-cyclohexyl]-5,6-dihydro-4H-2,3,5,10b-tetraaza-benzo[e]azulene] | 3.24 nM |
| CCN1Cc2cc(Cl)ccc2-n2c(nnc2[C@H]2CC[C@H](c3noc(C)n3)CC2)C1 [Example 75, trans-8-Chloro-5-ethyl-1-[4-(5-methyl-[1,2,4]oxadiazol-3-yl)-cyclohexyl]-5,6-dihydro-4H-2,3,5,10b-tetraaza-benzo[e]azulene] | 6.76 nM |
| Cc1nc([C@H]2CC[C@H](c3nnc4n3-c3ccc(Cl)cc3CN(C(C)C)C4)CC2)no1 [Example 76, trans-8-Chloro-5-isopropyl-1-[4-(5-methyl-[1,2,4]oxadiazol-3-yl)-cyclohexyl]-5,6-dihydro-4H-2,3,5,10b-tetraaza-benzo[e]azulene] | 10 nM |
| Cc1nc([C@H]2CC[C@H](c3nnc4n3-c3ccc(Cl)cc3CN(C3CCC3)C4)CC2)no1 [Example 77, trans-8-Chloro-5-cyclobutyl-1-[4-(5-methyl-[1,2,4]oxadiazol-3-yl)-cyclohexyl]-5,6-dihydro-4H-2,3,5,10b-tetraaza-benzo[e]azulene] | 1.51 nM |
| Cc1nc([C@H]2CC[C@H](c3nnc4n3-c3ccc(Cl)cc3CN(C3CCCC3)C4)CC2)no1 [Example 78, trans-8-Chloro-5-cyclopentyl-1-[4-(5-methyl-[1,2,4]oxadiazol-3-yl)-cyclohexyl]-5,6-dihydro-4H-2,3,5,10b-tetraaza-benzo[e]azulene] | 5.89 nM |
| Cc1nc([C@H]2CC[C@H](c3nnc4n3-c3ccc(Cl)cc3CN(CC(F)F)C4)CC2)no1 [Example 79, trans-8-Chloro-5-(2,2-difluoro-ethyl)-1-[4-(5-methyl-[1,2,4]oxadiazol-3-yl)-cyclohexyl]-5,6-dihydro-4H-2,3,5,10b-tetraaza-benzo[e]azulene] | 3.39 nM |
| CC(=O)N1Cc2cc(Cl)ccc2-n2c(nnc2[C@H]2CC[C@H](c3noc(C)n3)CC2)C1 [Example 80, trans-1-{8-Chloro-1-[4-(5-methyl-[1,2,4]oxadiazol-3-yl)-cyclohexyl]-4H,6H-2,3,5,10b-tetraaza-benzo[e]azulen-5-yl}-ethanone] | 22.9 nM |
